Assay results published in publication PMC10492782, “Exploiting the aggregation propensity of beta-lactamases to design inhibitors that induce enzyme misfolding” (Nature Communications, 2023).
Converted amounts (≈) assume the structure as drawn. Like-named read-outs stand apart in the source and are kept apart here. Residues, ends and D or L forms follow the SMILES beside them.

Key:
E. coli strain UZ_TEM104 [1] = conditions: broth microdilution, MHB, overnight 37 °C, peptide alone
Description: Pept-Ins consist of a tandem repeat of the APR, each instance flanked by charged amino acids for solubility and separated by a short peptide linker[20],[21],[24] (Fig. 3A). Previous work has shown that good bacterial uptake can be achieved using one positively charged arginine residue on the N-terminal side of each APR in the tandem and two arginine residues on the C-terminal side[20],[21]. […] As before, we employed a single Pro residue as a linker between the APRs and focused on an APR length of seven, extending shorter APRs to this length by incorporating flanking amino acids unless they were obvious aggregation breakers (Arg, Lys, Asp, Glu or Pro, see Table 1).
Determination of MIC values was performed using the broth microdilution method according to the EUCAST guideline, which was performed in 96-well polystyrene flat-bottom microtiter plates (BD Biosciences). Briefly, a single colony was inoculated into 5 mL Difco™ Mueller–Hinton Broth (BD Biosciences Ref 275730) and grown to the end-exponential growth phase in a shaking incubator at 37 °C. Cultures were subsequently diluted to a MacFarland (0.5 optical density) to reach 10^6 CFU/mL in fresh MHB medium. 50 µl of different concentrations of peptides ranging from 128 to 2 µg/mL were serially diluted to the sterile 96-well plate in MHB. 50 µL of the diluted bacteria in MHB were next pipetted into 96-well plates to reach the final volume of 100 µL. The bacteria grown with the maximum concentration of carrier and medium were considered positive and negative controls, respectively. The plates were statically incubated overnight at 37 °C to allow bacterial growth. OD was measured at 590 nm using a multipurpose ultraviolet–visible plate reader, and the absorbance of the bacterial growth was measured using an absorbance reader.

E. coli strain UZ_TEM104 [2] = test: microbe, parasite or virus in culture; assay type: cell-based, Escherichia coli
E. coli = assay type: cell-based, Escherichia coli; conditions: E.coli TEM104, Suppl. Figure 5
Protocol: For the analysis of synergy between the peptides and other antibiotics, a checkerboard assay was performed. Based on the MICs of the selected peptides, a checkerboard assay was designed to define their FICIs (Fractional Inhibitory Concentration Index) in combinations against different clinical isolates[53],[54]. Briefly, a total volume of 100 μL of Mueller–Hinton broth was distributed into each well of the 96-well plates. The first compound (peptide) of the combination was serially diluted vertically (128, 64, 32, 16, 8, 4, 2, 0 μg/mL) while the other drug (Beta-lactam or Kanamycin) was diluted horizontally in a 96-well plate (from 3200 to 3 μg/ mL). The total volume of each microtiter well was inoculated with 100 μL of MHB containing 1 × 10^6 CFU/mL bacteria. The plates were incubated at 37 °C for 24 h under aerobic conditions without shaking. Calculation of the FICI is used to analyze the results of the checkerboard assay by estimating the degree of synergistic effect. FICI is calculated as the sum of the individual fractional inhibitory concentrations (FICs) for each drug (where MIC A and MIC B denote the MIC of each drug alone, and MIC AA+B and MIC BA+B denote the concentrations of A and B in the drug combination). FICI = (MIC AA+B/MIC A) + (MIC BA+B/MIC B). With FICI ≤ 0.5, the combination of antibiotics is considered as a synergistic effect, 0.5 < FICI ≤ 1 indicates additivity, FICI > 1 indicates indifference. […]
Supplementary Figure 5: Fraction Inhibitory Concentration Index (FICI) values obtained from checkerboard assays between control peptides 1-4 and penicillin G. The peptide sequences were obtained by introducing proline mutations in TEM3.2 as follows: Pro1 […]
([…]), Pro2 ([…]), Pro3
([…]) and Pro4 ([…]). Each of the five dots […]
per condition indicates an independent experiment of the measurement consisting of 96 datapoints. FICI values below 0.5 indicate synergy (shaded in green). Values between 0.5 and 1.0 indicate additivity (shaded in yellow) and values greater than 1 indicate indifference (shaded in red) between the combined substances. […]

E. coli NDM5a = test: VITEK 2 AST antimicrobial susceptibility testing; assay type: cell-based, Escherichia coli; conditions: for Interoretation: E. coli NDM5a; for Interpretation: VITEK 2 AST card
Protocol: (§1) Beta-lactamase clinical samples were collected from University Hospitals Leuven and tested for ESBL production using the disk diffusion method. The beta-lactamase reference isolates were purchased from International Health Management Associates (IHMA). Bacterial strains were cultivated in Mueller–Hinton Broth (MHB, Difco) at 37 °C. Whenever required, growth media were supplemented with appropriate antibiotics to the medium or plates (kanamycin 30 µg/mL, L-arabinose 0.5 mg/mL, and IPTG […]). Escherichia coli BL21 (ThermoFisher Scientific, Belgium) was used for cloning and plasmid amplification. For the selection of antibiotic resistant colonies, E. coli carrying plasmids was grown in LB agar plates supplemented with the relevant antibiotic. Bacterial CFU counting was done on blood agar plates (BD Biosciences, Belgium) or MHA agar plates. Species identification and antibiograms for all clinical isolates were performed using MALDI-Tof and VITEK® 2 automated system (BioMérieux, France).
(§2) Khodaparast et al Supplementary data
(§3) study. […] Abbreviations: S,
(§4) susceptible; I, intermediate; R, resistant.

E. coli TEM-206 = test: VITEK 2 AST antimicrobial susceptibility testing; assay type: cell-based, Escherichia coli; conditions: for Interoretation: E. coli TEM-206; for Interpretation: VITEK 2 AST card
Protocol: as §1, §2, §3, §4

E. coli TEM-148 = test: VITEK 2 AST antimicrobial susceptibility testing; assay type: cell-based, Escherichia coli; conditions: for Interoretation: E. coli TEM-148; for Interpretation: VITEK 2 AST card
Protocol: as §1, §2, §3, §4

E. coli SHV1 (APHA) = test: VITEK 2 AST antimicrobial susceptibility testing; assay type: cell-based, Escherichia coli; conditions: for Interoretation: E. coli SHV154; for Interpretation: VITEK 2 AST card
Protocol: as §1, §2, §3, §4

E. coli TEM-104 = test: VITEK 2 AST antimicrobial susceptibility testing; assay type: cell-based, Escherichia coli; conditions: for Interoretation: E. coli TEM-104; for Interpretation: VITEK 2 AST card
Protocol: as §1, §2, §3, §4

E. coli NDM5b = test: VITEK 2 AST antimicrobial susceptibility testing; assay type: cell-based, Escherichia coli; conditions: for Interoretation: E. coli NDM5b; for Interpretation: VITEK 2 AST card
Protocol: as §1, §2, §3, §4

E. coli TEM-16 = test: VITEK 2 AST antimicrobial susceptibility testing; assay type: cell-based, Escherichia coli; conditions: for Interoretation: E. coli TEM-16; for Interpretation: VITEK 2 AST card
Protocol: as §1, §2, §3, §4

E. coli TEM-30 = assay type: cell-based, Escherichia coli; conditions: for Interoretation: E. coli TEM-30; for Interpretation: VITEK 2 AST card
Protocol: as §1, §2, §3, §4

[3] = E. coli UZ_TEM104, concentration of additive 50 (mg/mL [sic])
[4] = in the presence of additive (peptide or tazobactam) at fixed 50 μg/mL

`CC(=O)N[C@@H](CCCNC(=N)N)C(=O)N[C@@H](Cc1ccccc1)C(=O)N[C@@H](Cc1ccccc1)C(=O)N[C@@H](C)C(=O)N[C@@H](C)C(=O)N[C@@H](Cc1ccccc1)C(=O)N[C@@H](CS)C(=O)N[C@@H](CC(C)C)C(=O)N[C@@H](CCCNC(=N)N)C(=O)N[C@@H](CCCNC(=N)N)C(=O)N1CCC[C@H]1C(=O)N[C@@H](CCCNC(=N)N)C(=O)N[C@@H](Cc1ccccc1)C(=O)N[C@@H](Cc1ccccc1)C(=O)N[C@@H](C)C(=O)N[C@@H](C)C(=O)N[C@@H](Cc1ccccc1)C(=O)N[C@@H](CS)C(=O)N[C@@H](CC(C)C)C(=O)N[C@@H](CCCNC(=N)N)C(=O)N[C@@H](CCCNC(=N)N)C(N)=O` [TEM1.0] (Ac-RFFAAFCLRRPRFFAAFCLRR-NH2) gave an MIC peptide (E. coli strain UZ_TEM104 [1]) of over 0.1 mg/mL, an MIC penicillin (E. coli strain UZ_TEM104 [2]; [3]) of 1600 mg/mL (≈ 594 mM) and an MIC penicillin (E. coli strain UZ_TEM104 [2]; [4]) of 1.6 mg/mL.
In the case of Ac-RAGWFIARRPRAGWFIARR-NH2 [TEM5.0], the MIC peptide (E. coli strain UZ_TEM104 [1]) is reported as 0.1 mg/mL, the MIC penicillin (E. coli strain UZ_TEM104 [2]; [3]) is reported as 1600 mg/mL and the MIC penicillin (E. coli strain UZ_TEM104 [2]; [4]) is reported as 1.6 mg/mL.
In the case of Ac-RGIIAALGRRPRGIIAALGRR-NH2 [TEM6.0], the MIC peptide (E. coli strain UZ_TEM104 [1]) is reported as over 0.1 mg/mL, the MIC penicillin (E. coli strain UZ_TEM104 [2]; [3]) is reported as 1600 mg/mL and the MIC penicillin (E. coli strain UZ_TEM104 [2]; [4]) is reported as 1.6 mg/mL.
Work on Ac-RIVVIYTTRRPRIVVIYTTRR-NH2 [TEM7.0] yielded an MIC peptide (E. coli strain UZ_TEM104 [1]) of over 0.1 mg/mL, an MIC penicillin (E. coli strain UZ_TEM104 [2]; [3]) of 1600 mg/mL and an MIC penicillin (E. coli strain UZ_TEM104 [2]; [4]) of 1.6 mg/mL.
With Ac-RLLLTTIGRRPRLLLTTIGRR-NH2 [TEM2.0] the MIC peptide (E. coli strain UZ_TEM104 [1]) was over 0.1 mg/mL, the MIC penicillin (E. coli strain UZ_TEM104 [2]; [3]) was 800 mg/mL and the MIC penicillin (E. coli strain UZ_TEM104 [2]; [4]) was 0.8 mg/mL.
For Ac-RLLTLASRRPRLLTLASRR-NH2 [TEM4.0], the MIC peptide (E. coli strain UZ_TEM104 [1]) was 0.1 mg/mL, the MIC penicillin (E. coli strain UZ_TEM104 [2]; [3]) was 1600 mg/mL and the MIC penicillin (E. coli strain UZ_TEM104 [2]; [4]) was 1.6 mg/mL.
Ac-RLPPFLHNRRPRLPPFLRQRR-NH2 [Pro2] showed an FICi values (E. coli; Replicate1) of 0.75, an FICi values (E. coli; Replicate2) of 0.625 and an FICi values (E. coli; Replicate3) of 0.67. The FICi values (E. coli; Replicate4) was 0.71.
Ac-RLTAFLHNRRPRLTAFLHNRR-NH2 [TEM3.0] gave an MIC peptide (E. coli strain UZ_TEM104 [1]) of over 0.1 mg/mL.
Compound Ac-RLTPFPHNRRPRLTPFPRQRR-NH2 [Pro4] has an FICi values (E. coli; Replicate1) of 2, an FICi values (E. coli; Replicate2) of 2 and an FICi values (E. coli; Replicate3) of 2. It also gave an FICi values (E. coli; Replicate4) of 2.
Ac-RPTAPLHNRRPRPTAPLRQRR-NH2 [Pro1] showed an FICi values (E. coli; Replicate1) of 2, an FICi values (E. coli; Replicate2) of 2 and an FICi values (E. coli; Replicate3) of 2. For the same compound, the FICi values (E. coli; Replicate4) was 2.
Compound Ac-RPTPFLHNRRPRPTPFLRQRR-NH2 [Pro3] has an FICi values (E. coli; Replicate1) of 2, an FICi values (E. coli; Replicate2) of 2 and an FICi values (E. coli; Replicate3) of 2. It also gave an FICi values (E. coli; Replicate4) of 2.
In the case of Colistin, the Interoretation (E. coli NDM5a) is reported as “S”, the Interpretation (E. coli NDM5a) is reported as “S” and the Interoretation (E. coli TEM-206) is reported as “S”. For the same compound, the Interpretation (E. coli TEM-206) was “S”, the Interoretation (E. coli TEM-148) was “S” and the Interpretation (E. coli TEM-148) was “S”. For the same compound, the Interoretation (E. coli SHV1 (APHA)) was “S”, the Interpretation (E. coli SHV1 (APHA)) was “S” and the Interoretation (E. coli TEM-104) was “S”. For the same compound, the Interpretation (E. coli TEM-104) was “S”, the Interoretation (E. coli NDM5b) was “S” and the Interpretation (E. coli NDM5b) was “S”. For the same compound, the Interoretation (E. coli TEM-16) was “S”, the Interpretation (E. coli TEM-16) was “S” and the Interoretation (E. coli TEM-30) was “S”. The Interpretation (E. coli TEM-30) was “S”.
Piperacillin / tazobactam was tested, and the Interoretation (E. coli NDM5a) was “R”, the Interpretation (E. coli NDM5a) was “R” and the Interoretation (E. coli TEM-206) was “*R”. The Interpretation (E. coli TEM-206) was “*R”, the Interoretation (E. coli TEM-148) was “*R” and the Interpretation (E. coli TEM-148) was “*R”. The Interoretation (E. coli SHV1 (APHA)) was “R”, the Interpretation (E. coli SHV1 (APHA)) was “R” and the Interoretation (E. coli TEM-104) was “*I”. The Interpretation (E. coli TEM-104) was “*I”, the Interoretation (E. coli NDM5b) was “R” and the Interpretation (E. coli NDM5b) was “R”. The Interoretation (E. coli TEM-16) was “*R”, the Interpretation (E. coli TEM-16) was “*R” and the Interoretation (E. coli TEM-30) was “*R”. The Interpretation (E. coli TEM-30) was “*R”.
Trimethoprim/sulfamethoxazole was tested, and the Interoretation (E. coli NDM5a) was “S”, the Interpretation (E. coli NDM5a) was “S” and the Interoretation (E. coli TEM-206) was “R”. For the same compound, the Interpretation (E. coli TEM-206) was “R”, the Interoretation (E. coli TEM-148) was “R” and the Interpretation (E. coli TEM-148) was “R”. For the same compound, the Interoretation (E. coli SHV1 (APHA)) was “R”, the Interpretation (E. coli SHV1 (APHA)) was “R” and the Interoretation (E. coli TEM-104) was “S”. The Interpretation (E. coli TEM-104) was “S”, the Interoretation (E. coli NDM5b) was “R” and the Interpretation (E. coli NDM5b) was “R”. For the same compound, the Interoretation (E. coli TEM-16) was “S”, the Interpretation (E. coli TEM-16) was “S” and the Interoretation (E. coli TEM-30) was “S”. For the same compound, the Interpretation (E. coli TEM-30) was “S”.
